Test results from US10995260B2, “Methods for determining an optimal surfactant structure for oil recovery” (University of Wyoming, priority 2017, dated 2021).

Experiment: Dynamic interfacial tension of surfactant solution/crude oil (rising/captive bubble tensiometry)
Type: physicochemical
Conditions: time for IFT to reach half of its value between γo and γm; 0.1% wt surfactant, municipal water/crude oil, ambient conditions
Method: Interfacial tension tests were carried out in accordance with the invention. Dynamic IFT and contact angles were measured using rising/captive bubble tensiometry enhanced by image acquisition with a high-resolution Charged Coupled Device (CCD) digital camera and apochromatically-corrected lens. The apparatus includes a Hastelloy measurement cell, a Hastelloy dual-cylinder pulse-free Quizix pump (to provide constant flow rate and pressure), a temperature control module, a data acquisition computer, an oven, and an in-line density meter (Anton Paar DMA HPM) to measure the density of fluids at actual experimental conditions. The system tolerates reservoir conditions with pressures and temperatures up to 10,000 psi and 150° C., respectively (V. Mirchi, S. Saraji, L. Goual, M. Piri, Dynamic interfacial tension and wettability of shale in the presence of surfactants at reservoir conditions, Fuel, vol. 148, pp. 127-138, 2015).
For IFT measurements, after establishing ambient (e.g., 14.7 psi and 20° C.) or reservoir conditions (e.g., 6840 psi and 120° C.) in a cell saturated with brine, a bubble of crude oil was created inside the measurement cell through a needle (0.3-1.6 mm outside diameter). Images of oil bubbles were captured at 5-second intervals to measure dynamic interfacial tension. IFT values were obtained by fitting the drop profile to the Young-Laplace equation using Axisymetric Drop Shape Analysis (ADSA) software.
A series of dynamic IFT measurements with municipal water and crude oil were performed at ambient conditions to examine the surface activity of selected surfactants. FIGS. 5A-5F present dynamic IFT results of a homologous series of nonionic surfactant solutions with 0.1% wt concentration, which is above the critical micelle concentration (CMC) of all the surfactants studied. The size of the hydrophobic and hydrophilic parts of the surfactants were altered independently and their impact on oil/brine interfacial tension was investigated.
In addition, the dynamic IFT of certain surfactants was measured at reservoir conditions. In particular, the impact of elevated temperatures and pressures on the performance of these surfactants was evaluated. IFT values of crude oil and surfactant solutions were measured at 6840 psi and 120° C.
As shown by Equation 1, three typical regions of dynamic IFT reduction exist: (I) induction region, (II) rapid fall region, and (III) mesoequilibrium region (X. Y. Hua, M. J. Rosen, Dynamic surface tension of aqueous surfactant solutions: I. Basic parameters, Journal of Colloid and Interface Science, vol. 124, no. 2, pp. 652-659, 1988). log(γ0−γt)−log(γt−γm)=n log t−n log t* (1)
In Equation 1, γt is the IFT of surfactant solution at time t, γm is the mesoequilibrium interfacial tension (when γt is almost stabilized), γo is the IFT in the absence of surfactant, and t* is the required time for IFT to reach half of its value between γo and γm. The value of n is a constant number related to the structure of surfactants and correlates to the difference between surfactants' adsorption and desorption. Increasing nonionic surfactants' polyoxyethylene chain length reduces the value of n (T. Gao, M. J. Rosen, Dynamic surface tension of aqueous surfactant solutions: 7. physical significance of dynamic parameters and the induction period, Journal of Colloid and Interface Science, vol. 172, no. 1, pp. 242-248, 1995).

Substance | t*
CH3(CH2)8-10(OC2H4)2.5OH [CH2 8-10, EO 2.5] | 16.5 min
CH3(CH2)8-10(OC2H4)6-6.5OH [CH2 8-10, EO 6] | 12.3 min
CH3(CH2)8-10(OC2H4)8.3OH [CH2 8-10, EO 8] | 11.6 min
CH3(CH2)11-13(OC2H4)8.2OH [CH2 11-14, EO 8.2] | 7.83 min
CH3(CH2)11-14(OC2H4)3OH [CH2 11-14, EO 3] | 23 min
CH3(CH2)11-14(OC2H4)7.25OH [CH2 11-14, EO 7.25] | 9.3 min
